Data as given in PubChem BioAssay AID1918947 (Molecular Pharmacology Branch, DTP, NCI, 2023).

System: A498 complex spheroid viability
Experiment: Anticancer human tumor A498 cell line growth inhibition;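 further: spheroids exposed to agents for seven days before readout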;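 on viability, T/C: 100% = DMSO vehicle-treated spheroids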
Conditions: for viability, T/C: stronger effect = lower value
From the text: Multicellular complex tumor spheroid response to LSD1 Inhibitor Iadademstat in combination with a variety of drugs and investigational agents in selected tumor cell lines
The current study was undertaken to assess response to LSD1 inhibitors in combination with standard-of-care drugs and investigational agents in solid tumor complex spheroid models as well as in the K-562 leukemia. Complex spheroids include a stromal component modeled by human endothelial cells (HUVEC) and fibroblasts modeled by human mesenchymal stem cells (MSCs). The concentration ranges selected for each drug and investigational agent were based upon clinically achievable concentrations if the clinical Cmax of the agent was known.
Compounds. The drugs and investigational agents used in this study are listed on Table 1. All of the agents used, including staurosporine (NSC755774) and gemcitabine (NSC613327), were obtained from the Developmental Therapeutics Program, NCI. FDA-approved anticancer drugs are available from the NCI at http://dtp.nci.nih.gov/branches/dscb/oncology_drugset_explanation.html. Drugs and investigational agents were >95% pure by proton nuclear magnetic resonance (NMR) and liquid chromatography/mass spectrometry (LC/MS). Stock solutions were prepared at 400x in DMSO, stored at -70 degrees C, and diluted in fresh medium prior to their use. The final concentration of DMSO in cell culture wells never exceeded 0.25% (v/v). The FDA-approved anticancer drug set is available from the Developmental Therapeutics Program at https://dtp.cancer.gov/organization/dscb/obtaining/available_plates.htm. All drugs and investigational agents were tested over a range starting from a high concentration at or near the clinical Cmax and decreasing in half-log increments. If the clinical Cmax for an agent had not been determined, the highest concentration tested was 10 microM.
Cell Lines. The patient-derived cancer cell (PDC) lines: 292921-168-R-J2-PDC, K24384-001-R-PDC, and 521955-158-R2-J5-PDC pancreatic carcinomas, 556581-035-R-J1 ovarian carcinoma, 324938-238-R-J1-PDC, 855422-203-R-J1-PDC and 883617-216-R-J1-PDC urothelial bladder carcinomas, 743489-274-T-PDC renal cell carcinoma, 138582-R-J1 Merkel cell tumor, K60290-347-R-J1 and K57222-313-R-J1-PDC glioblastomas, 653999-131-R-J2-PDC, LG0703-F948-PDC, and 349418-098-R-PDC non-small cell lung carcinomas, 885512-296-R-J2-PDC, 171881-019-R-J1-PDC breast carcinomas and 186277-243-T-J2-PDC and 233499-124-R-J2-PDC colon carcinomas were obtained from the NCI Patient-Derived Models Repository (PDMR, https://pdmr.cancer.gov). The established cell lines NCI/ADR-RES (RRID:CVCL_14520 and OVCAR-5 (RRID:CVCL_1628) ovarian carcinomas, 786-O (RRID:CVCL_1051) and A498 (RRID:CVCL_A498) renal cell carcinoma, NCI-H211 (ATCC, cat. CRL-5824; RRID:CVCL_1529), NCI-H196 (ATCC, cat. CRL-5823, RRID:CVCL_1509), SW 1271 (ATCC, cat. CRL-2177, RRID:CVCL_1716) and NCI-H1876 (ATCC, cat. CRL-5902, RRID:CVCL_1503) small cell lung carcinomas, MDA-MB-231 (RRID:CVCL_0062) and MDA-MB-468 (RRID:CVCL_0419)breast carcinomas (10-12). Pooled donor human umbilical vein endothelial cells (HUVEC, Lonza, cat. CC-2519) and human mesenchymal stem cells (hMSC, Lonza, cat. PT-2501) were purchased from Lonza (Walkersville, MD).
Cell Culture. All cells were maintained in an incubator at 37 degrees C and 5% CO2 with 95% humidity. The PDC lines were cultured according to standard operating procedures established by the NCI PDMR (https://pdmr.cancer.gov). Briefly all PDCs were thawed and cultured in Matrigel-coated flasks prepared with a working solution of 1X Ham's F-12 nutrient mix, without supplementation (Invitrogen, Waltham, MA, cat. 11765054), 100 U/mL penicillin-streptomycin (Invitrogen, cat. 15140122), and 2.5% Matrigel (Corning Inc., Corning, NY, cat. 354248) for the first three passages. […]

`CC1COCCN1c1cc(C2(S(C)(=N)=O)CC2)nc(-c2ccnc3[nH]ccc23)n1` (stereo not drawn) + NC1CCC(NC2CC2c2ccccc2)CC1 was tested, and the IC50 (curve of first compound, second compound 0.1 µM) was 648 nM, the IC50 (curve of first compound, second compound 0.316 µM) was 784 nM and the IC50 (curve of first compound, second compound 1 µM) was 677 nM. The IC50 (curve of first compound, second compound 3.16 µM) was 590 nM, the IC50 (curve of first compound, second compound 10 µM) was 507 nM and the viability, T/C (second compound 0.1 µM, first compound 0.0316 µM) was 91.8%. It also gave a viability, T/C (second compound 0.1 µM, first compound 0.1 µM) of 89%, a viability, T/C (second compound 0.1 µM, first compound 0.316 µM) of 70.7% and a viability, T/C (second compound 0.1 µM, first compound 1 µM) of 37.2%. It also gave a viability, T/C (second compound 0.1 µM, first compound 3.16 µM) of 18.2%, a viability, T/C (second compound 0.1 µM, first compound 10 µM) of 12% and a viability, T/C (second compound 0.316 µM, first compound 0.0316 µM) of 99%. The viability, T/C (second compound 0.316 µM, first compound 0.1 µM) was 96.9%, the viability, T/C (second compound 0.316 µM, first compound 0.316 µM) was 82.8% and the viability, T/C (second compound 0.316 µM, first compound 1 µM) was 40.6%. For the same compound, the viability, T/C (second compound 0.316 µM, first compound 3.16 µM) was 18.9%, the viability, T/C (second compound 0.316 µM, first compound 10 µM) was 11.2% and the viability, T/C (second compound 1 µM, first compound 0.0316 µM) was 86.8%. For the same compound, the viability, T/C (second compound 1 µM, first compound 0.1 µM) was 94%, the viability, T/C (second compound 1 µM, first compound 0.316 µM) was 72.4% and the viability, T/C (second compound 1 µM, first compound 1 µM) was 37.6%. The viability, T/C (second compound 1 µM, first compound 3.16 µM) was 19.6%, the viability, T/C (second compound 1 µM, first compound 10 µM) was 11.4% and the viability, T/C (second compound 3.16 µM, first compound 0.0316 µM) was 81.3%. For the same compound, the viability, T/C (second compound 3.16 µM, first compound 0.1 µM) was 85.6%, the viability, T/C (second compound 3.16 µM, first compound 0.316 µM) was 69.7% and the viability, T/C (second compound 3.16 µM, first compound 1 µM) was 32.7%. The viability, T/C (second compound 3.16 µM, first compound 3.16 µM) was 17.6%, the viability, T/C (second compound 3.16 µM, first compound 10 µM) was 12.3% and the viability, T/C (second compound 10 µM, first compound 0.0316 µM) was 76.6%. For the same compound, the viability, T/C (second compound 10 µM, first compound 0.1 µM) was 75.9%, the viability, T/C (second compound 10 µM, first compound 0.316 µM) was 60.8% and the viability, T/C (second compound 10 µM, first compound 1 µM) was 33.9%. The viability, T/C (second compound 10 µM, first compound 3.16 µM) was 17.9% and the viability, T/C (second compound 10 µM, first compound 10 µM) was 12.8%.
In the case of `NC1CC1c1ccc(-c2cccc(O)c2)cc1` (stereo not drawn), the viability, T/C (compound 0.316 µM) is reported as 104% [middle of 25 runs], the viability, T/C (compound 10 µM) is reported as 94.1% [middle of 25 runs] and the IC50 (compound alone, run of 12/07/2021) is reported as greater than 10000 nM.
